How the values were obtained:
Format in all cases: binding
Conditions in all cases: for Cross-reaction (%): RIA, 100x/y, masses of testosterone and heterologous compound giving 50% inhibition of binding of the tritiated ligand
[1] = system: monoclonal antibody to testosterone, clone D11 (rat spleen x mouse myeloma NSO/1 hybridoma; heavy chain class Y2a); assay: Dextran-coated charcoal radioimmunoassay (RIA): affinity and specificity of antibody in ascitic fluid
Protocol: (§1) Characterization of antibodies: A dextran-coated charcoal radioimmunoassay method was used to detect specific antibodies to testosterone. Antibody titer denotes the dilution at which 50% of the labelled ligand, added at concentrations of 50 pg./ml., is bound as determined by radioimmunoassay. Cross reactivity (%) was calculated as proposed by Thorneycroft et al ("Immunologic Methods", Steroid Determination, Peron and Caldwell, eds., Appleton-Century-Crofts, New York 1970, pp. 63-86). as 100x/y where x is the mass of testosterone and y is the mass of heterologous compound required to produce 50% inhibition of the binding of the tritiated ligand. Affinity of the antibodies was calculated according to Abraham et al in Handbook of Radioimmunoassay, Marcel Dekker Inc., New York, 1977, pp. 591-656.
(§2) After two weeks of growth, antibody-secreting hybridomas were detected by a RIA procedure in the tissue culture media of 30 out of the 147 cultures. During subsequent cell culture, 3 hybridoma lines that yielded high antibody titers were cloned by limiting dilutions and sub-cloned on semi-solid agar. When injected i.p. into pristane-trea ted irradiated F₁ mice or nude mice, the hybridomas grew as tumors and secreted high amounts of anti-testosterone antibodies into the ascitic fluid of these mice, with titers ranging from 1:10,000 to 1:60,000 (Table 1).
(§3) Characterization of monoclonal antibodies: The ascitic fluid of mice derived from three hybridomas. H₆, F₂ and D₁₁ was further characterized for affinity and specificity by a dextran-coated RIA procedure.

[2] = system: monoclonal antibody to testosterone, clone F2 (rat spleen x mouse myeloma NSO/1 hybridoma; heavy chain class IgM); assay: as above
Protocol: as §1, §2, §3

[3] = system: monoclonal antibody to testosterone, clone H6 (rat spleen x mouse myeloma NSO/1 hybridoma; heavy chain class Y2a); assay: as above
Protocol: as §1, §2, §3

[4] = system: Polyclonal Rat IgG to testosterone (from the rats used for the fusion experiments); assay: Dextran-coated charcoal radioimmunoassay (RIA): affinity and specificity of antibody
Protocol: Immunization: Wistar-derived female rats (2 to 3 months old) from the Departmental Colon y were immunized by an intradermal injection of testosterone-3-(O-carboxymethyl)-oxime bovine serum albumin conjugate (200 ug/rat) incorporated in complete Freund's adjuvant. A month later the injection was repeated, and booster injections (100 ug/rat) were given three weeks later. All animals were bled from the tail ten days after the booster injection, and the antisera were tested then for titer and specificity.
as §1

[5] = calculated according to the method of Abraham et al

| Compound | Cross-reaction (%) [1] [%] | Cross-reaction (%) [2] [%] | Cross-reaction (%) [3] [%] | Cross-reaction (%) [4] [%] | Ka [1, 5] [L/mol] | Ka [2, 5] [L/mol] | Ka [3, 5] [L/mol] | Ka [4, 5] [L/mol] |
| --- | --- | --- | --- | --- | --- | --- | --- | --- |
| C[C@]12CCC(=O)C[C@@H]1CC[C@@H]1[C@@H]2CC[C@]2(C)[C@@H](O)CC[C@@H]12 [5-alpha-Dihydrotestosterone] | 100 | 2 | 100 | 10 |  |  |  |  |
| C[C@]12CCC(=O)C[C@H]1CC[C@@H]1[C@@H]2CC[C@]2(C)[C@@H](O)CC[C@@H]12 [5-beta-Dihydrotestosterone] | 8.5 | 15 | 0.5 | 2 |  |  |  |  |
| C[C@]12CC[C@H]3[C@@H](CCC4=CC(=O)CC[C@@]43C)[C@@H]1CC[C@@H]2O [Testosterone] | 100 | 100 | 100 | 100 | 1.85e+10 | 1e+10 | 2.1e+10 | 3.7e+09 |
